{"source": "patent US12428442B2", "about": "“Compounds, compositions and methods for synthesis” (WAVE LIFE SCIENCES LTD., priority 2017, dated 2025)", "assay": "Measuring pKa value of amino alcohols by titration against NaOH in MDA/KCl", "details": "MDA = Methanol-Dioxane-Acetonitrile, 1:1:1", "description": "To this clear solution was added 6 μL of con. HCl and stirred well. This solution was titrated against 1 M NaOH solution. NaOH solution was added in 2 (or 4) ml increments. During the addition of each increment of NaOH solution, pH of the solution was recorded using a pH meter until a pH of 12 was measured. The measured titration values were analyzed (graph pad software was used) to determine the first derivative of the volume of NaOH used in the titration. This first derivative value is the pKa of the amino alcohol.", "data": [{"smiles": "C[Si](C[C@@H](O)[C@@H]1CCCN1)(C1CCCCC1)C1CCCCC1", "note": "[WV-CA-041-L]", "values": [{"measurement": "solubility of sample in MDA mixture", "value": "Sample Insoluble in MDA"}]}, {"smiles": "C[Si](C[C@H](O)[C@H]1CCCN1)(C1CCCCC1)C1CCCCC1", "note": "[WV-CA-041-D]", "values": [{"measurement": "solubility of sample in MDA mixture", "value": "Sample Insoluble in MDA"}]}, {"smiles": "C[Si](C[C@@H](O)[C@@H]1CCCCN1)(C1CCCCC1)C1CCCCC1", "note": "[WV-CA-045]", "values": [{"measurement": "solubility of sample in MDA mixture", "value": "Insoluble in MDA mixture"}]}, {"smiles": "C[Si](C[C@H](O)[C@@H]1CCCCN1)(C1CCCCC1)C1CCCCC1", "note": "[WV-CA-046]", "values": [{"measurement": "solubility of sample in MDA mixture", "value": "Insoluble in MDA mixture"}]}]}
